What was measured:
[1] = H&E histology of major organs after treatment; type: in vivo, mouse; conditions: C57BL/6 mice after treatment, 10.0 μmol/kg
Procedure: Hematoxylin and eosin staining. Tissue samples were subjected to histopathological examination using hematoxylin and eosin (H&E) staining. Mouse organs (heart, liver, spleen, lungs and kidneys) were collected in 4% paraformaldehyde for proper fixation and then embedded in paraffin using a tissue embedding machine. Sections were prepared in an orderly manner by dewaxing, dehydration, and H&E staining. The tissue morphology was observed under a fluorescence microscope (Olympus BX41, Japan).

STING pathway in BMDCs = test: IFN-β and IL-6 ELISA in supernatants of BMDCs treated with complexes; type: cell-based, mouse
Procedure: ELISA. Bone marrow-derived dendritic cells (BMDCs) were prepared according to the following method. Briefly, femurs and tibias were removed from 4-6 week-old C57BL/6 mice, and the bone marrow cells were isolated. The bone marrow cells were incubated in T cell medium [RPMI-1640 medium (with GlutaMAX), supplemented with 10% FBS, 1% HEPES, 1% NEAA, 1% sodium pyruvate, and 0.1% βME] containing 20 ng/mL GM-CSF for 6 days after erythrocyte lysis, during which time half of the medium was replaced with fresh T cell medium once and the cytokines were supplemented. Then, the BMDCs were harvested on day 7 for further study.
BMDCs were cultured with 50% CM plus 50% fresh medium for 18 h. In addition, BMDCs were cultured with fresh medium containing different complexes or mixtures (15 μM CDDP and I, a mixture of I and 8 equiv. AsA, and equal AsA). Then, all the BMDC supernatant was collected and centrifuged for subsequent cytokine analysis using ELISA kits, which were performed according to the manufacturer’s instructions.

MCF-7 cells = test: 72 h MTT cytotoxicity, MCF-7; type: cell-based, human
Procedure: (§1) Cytotoxicity. Tumor cells were cultured overnight after inoculation in RPMI-1640 medium or DMEM supplemented with 10% FBS. All cultures were maintained in an incubator in a highly humidified atmosphere of 95% air with 5% CO2 at 37 °C. Growth inhibition was measured with an MTT assay. Briefly, 2800–7000 cells per well in culture medium (100 μL) were plated in 96-well plates (Corning). The cells were treated in triplicate with different concentrations of complexes at 37 ℃ for 72 h. Stock solutions of CDDP and oxoplatin were prepared in PBS, while stock solutions of conjugates I and II and the ligand MSA-2 were prepared in DMSO. The stock solutions were diluted in complete medium (DMSO < 0.5%). An aliquot of MTT solution (40 μL, 2.5 mg·mL^–1) in PBS buffer was added to each well and incubated for 4 h. The supernatant was removed and DMSO (150 μL) was added to solubilize the formazan crystals. The amount of formazan was determined using a microplate reader at 570 nm after the plates were shaken for 30 min. The optical density (OD) was used to calculate the percentage of viable cells relative to untreated control values. Background readings for MTT incubated in cell-free medium were subtracted from each value before calculation. […] The mean IC50 values were calculated using data from three replicates.

[2] = system: cancer cell lines (MCF-7, Caov3, PANC-1, BxPC3, Pan02); test: 72 h MTT cytotoxicity, panel of cancer cell lines; type: cell-based
Procedure: as §1

[3] = octanol-water partition coefficient, shake-flask, ICP-MS; type: physicochemical; conditions: n-octanol / phosphate buffer 10 mM pH 7.4, room temperature
Procedure: Lipid-water partition coefficient. The shake-flask method was used to measure the partition coefficients of CDDP, I and II. Briefly, a mixture containing equal volumes of n-octanol and phosphate buffer (10 mM, pH 7.4) was shaken on a mechanical shaker at room temperature for 24 h. Complexes (10 mM) in phosphate buffer (presaturated with n-octanol) were mixed with an equal volume of n-octanol (presaturated with phosphate buffer), and the mixture was shaken for 24 h at room temperature. Centrifugation was carried out at 2500 rpm for 30 min to separate the two phases. The aqueous layer was carefully separated, and the Pt content in the initial and final aqueous phases was analyzed by inductively coupled plasma mass spectrometry (ICP-MS). The log PO/W was measured using the following equation: log PO/W = log [(Ptinitial ‒ Ptfinal)/Ptfinal].

Pan02 cells [4] = test: 72 h MTT cytotoxicity, Pan02; type: cell-based, mouse
Procedure: as §1

HK-2 cells = test: 72 h MTT cytotoxicity, HK-2; type: cell-based; conditions: human normal kidney cell line
Procedure: as §1

Pan02 cells [5] = test: Pan02 cell viability with cell death inhibitors / at matched Pt uptake; type: cell-based; conditions: Pan02, I 0.2 μM; necrostatin-1 50 μM, ferrostatin 50 μM
Procedure: For Pan02 cells, the cell viability in the presence of different cell death inhibitors was also determined. Therefore, Pan02 cells were respectively pre-incubated with z-VAD-fmk (50 μM), 3-Methyladenine (100 μM), ferrostatin (50 μM), necrostatin-1 (50 μM) 1 h, and then co-incubated I (0.2 μM) for 72 h. The cell viability was then determined.
Fig. S17. (A) The chemical structure of Pt-E-I. (B) Cellular uptake of Pt (ng Pt/mg protein) in Pan02 cells after exposure to Pt-E-I (5 μM) for 6 h. NH4Cl: cells preincubated with 50 mM NH4Cl; MI: cells preincubated with 50 mM 2-deoxy-D-glucose and 5 μΜ oligomycin. (C) Cellular uptake of Pt (ng Pt/mg protein) in Pan02 cells after exposure to I and Pt-E-I (1, 2, 5, 10, 20 μM) for 6 h. (D) The cell viability of Pan02 treated with I (5 μM) and Pt-E-I (20 μM). (E) Hierarchical clustering of differentially expressed genes between I-treated (5 μM) Pan02 cells, Pt-E-I-treated (20 μM) and nontreated cells.

Caov3 cells = test: 72 h MTT cytotoxicity, Caov3; type: cell-based, human
Procedure: as §1

[6] = pretreated with 8 equiv. AsA for 24 h, compared with no pretreatment

COc1cc2cc(C(=O)CCC(=O)[O][Pt]([NH2])([NH2])([OH])([Cl])[Cl])sc2cc1OC [conjugate I]
histological findings in major organs [1]: only mild vacuolar degeneration in the liver and aggregates containing only a few inflammatory cells in the lungs | IFN-β secretion by BMDCs (STING pathway in BMDCs; 18 h, ELISA, 15 μM): minimal | IL-6 secretion by BMDCs (STING pathway in BMDCs; 18 h, ELISA, 15 μM): minimal | IFN-β secretion by BMDCs, compound pretreated with AsA (STING pathway in BMDCs; [6]): significantly enhanced | IL-6 secretion by BMDCs, compound pretreated with AsA (STING pathway in BMDCs; [6]): significantly enhanced | IC50 (MCF-7 cells): 300 ± 100 nM | IC50 in these cancer cell lines [2]: submicromolar | octanol-water partition coefficient (logPo/w) [3]: 0.9 | IC50 (Pan02 cells [4]): 50 ± 10 nM | IC50 (HK-2 cells): 120 ± 10 nM | cell killing on co-incubation with necroptosis and ferroptosis inhibitors (Pan02 cells [5]): significant reversal of cell killing | IC50 (Caov3 cells): 700 ± 100 nM

Reference: publication PMC10852989, “Combining cisplatin and a STING agonist into one molecule for metalloimmunotherapy of cancer” (National Science Review, 2024)
